# Biological target: T1, adenosine receptors (designated A1) (Rattus norvegicus, UniProt P25099)
# T1 construct: Whole brain minus cerebellum and brainstem from male Long Evans rats (150-200 g); from tissue; host or cells: whole brain minus cerebellum and brainstem, male Long Evans rats, membranes
# T1 sequence (P25099 1-326): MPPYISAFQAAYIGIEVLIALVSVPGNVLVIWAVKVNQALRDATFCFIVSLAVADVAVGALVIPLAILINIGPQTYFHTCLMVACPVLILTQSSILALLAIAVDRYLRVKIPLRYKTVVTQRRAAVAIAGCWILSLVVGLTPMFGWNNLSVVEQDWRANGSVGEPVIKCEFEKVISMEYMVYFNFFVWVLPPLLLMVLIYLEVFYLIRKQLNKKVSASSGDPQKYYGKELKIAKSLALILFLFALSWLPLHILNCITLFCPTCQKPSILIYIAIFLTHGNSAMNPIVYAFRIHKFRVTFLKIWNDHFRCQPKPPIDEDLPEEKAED
# Assay: Adenosine receptor binding - A1 receptor affinity (RBA1), [3H]-CHA displacement, rat whole brain minus cerebellum and brainstem membranes
# Parameters: species or system rat (male Long Evans)
# Conditions: 1.0 nM [3H]-CHA, 25° C., pH 7.7; repeat tests (Test 1-4) one line each; read-out: RBA-1 (IC50, adenosine A1 affinity)
# Experimental: ADENOSINE RECEPTOR BINDING-A1 RECEPTOR AFFINITY (RBA1)
# Whole brain minus cerebellum and brainstem from male Long Evans rats (150-200 g) was homogenized in 30 volumes of ice-cold 0.05M Tris-HCl buffer pH 7.7 using a Brinkman Polytron PT-10, (setting number 6 for 20 seconds) and centrifuged for ten minutes at 20,000×g (Sorvall RC-2), 4° C. The supernatant was discarded, and the pellet was resuspended and centrifuged as before. The pellet was resuspended in 20 ml Tris-HCl buffer containing two International Units/ml of adenosine deaminase (Sigma type III from calf intestinal mucosa), incubated at 37° C. for 30 minutes, then subsequently at 0° C. for ten minutes. The homogenate was again centrifuged, and the final pellet was resuspended in ice-cold 0.05M Tris-HCl buffer pH 7.7 to a concentration of 20 mg/ml original wet tissue weight and used immediately.
# Tissue homogenate (10 mg/ml) was incubated in 0.05M Tris-HCl buffer pH 7.7 containing 1.0 nM [^3 H]-N^6 -cyclohexyladenosine (^3 H]-CHA) with or without test agents in triplicate for one hour at 25° C. Incubation volume was 2 ml. Unbound [^3 H]-CHA was separated by rapid filtration under reduced pressure through Whatman glass fiber (GF/B) filters. The filters were rinsed three times with 5 ml of ice cold 0.05M Tris-HCl buffer pH 7.7. The radio-labeled ligand retained on the filter was measured by liquid scintillation spectrophotometry after shaking the filters for one hour or longer on a mechanical shaker in 10 ml of Beckman Ready-Solv HP scintillation cocktail.
# Nonspecific binding was defined as the binding which occurred in the presence of 1 mM theophylline. The concentration of test agent which inhibited 50% of the specific binding (IC50) was determined by nonlinear computer curve fit. The Scatchard plot was calculated by linear regression of the line obtained by plotting the amount of radioligand bound ([…]) versus [bound radioligand/free radioligand].Since the amount of radioligand bound was a small fraction of the total amount added, free radioligand was defined as the concentration (nM) of radioligand added to the incubation mixture. The Hill coefficient was calculated by linear regression of the line obtained by plotting the log of the bound radioligand vs the log of the [bound radioligand/(Bmax -bound radioligand)]. The maximal number of binding sites (Bmax) was calculated from the Scatchard plot.
row,SMILES,IC50
1,"CCn1nc(C)c2[nH]c(=O)n(C)c(=O)c21 [Example 6, 1-Ethyl-3,6-dimethyl-1H-pyrazolo-[4,3-d]pyrimidine-5,7-[4H,6H]dione]",2.53 µM

# Test system: Type 1 Phosphodiesterase
# Assay: PDE inhibition, Type 1 phosphodiesterase, cardiac muscle
# Assay type: biochemical
# Conditions: 1 × 10^-4 M
# Experimental: (§1) Phosphodiesterase activity was measured as described previously (Weishaar, P. E., Quade, M., Boyd, D., Schenden, J., Mark, S. S., Kaplan, H. R., Drug Devel. Res., 3:517-534, 1983), in a reaction medium containing 40 mM Tris-HCl (pH 8.0), 5 mM MgCl and 4 mM 2-mercaptoethanol. Unless otherwise noted, the concentration of substrate (^3 H-cyclic AMP or ^3 H-cyclic GMP) was 1.0 μM. All agents examined were dissolved in dimethyl sulfoxide (DMSO). Final concentration of the reaction medium was either 2.5% (cardiac and platelet studies) or 1.25% (smooth muscle studies). This concentration of DMSO produced an approximately 10% inhibition of enzyme activity. […] Three to four such concentration-response curves were generated for each agent, generally using different enzyme preparations for each concentration-response.
SMILES,"% Inhibition of 3H-cAMP Hydrolysis, Type 1 Phosphodiesterase","% Inhibition of 3H-cGMP Hydrolysis, Type 1 Phosphodiesterase"
"CCn1nc(C)c2[nH]c(=O)n(C)c(=O)c21 [Example 6, 1-Ethyl-3,6-dimethyl-1H-pyrazolo-[4,3-d]pyrimidine-5,7-[4H,6H]dione]",A (56-100% inhibition at 1 × 10^-5 M),A (56-100% inhibition at 1 × 10^-5 M)
"Cc1nn(C)c2c(=O)n(C)c(=O)n(C)c12 [Example 7, 1,3,4,6-tetramethyl-1H-pyrazolo[4,3-d]pyrimidine-5,7-[4H,6H]dione]",C (21-35% inhibition at 1 × 10^-5 M),N (0-20% inhibition at 1 × 10^-5 M)
"CCn1c(=O)c2c(c(C)nn2C)n(CC)c1=O [Example 8, 4,6-Diethyl-1,3-dimethyl-1H-pyrazolo[4,3-d]pyrimidine-5,7-[4H,6H]dione]",B (36-55% inhibition at 1 × 10^-5 M),B (36-55% inhibition at 1 × 10^-5 M)
"CCCn1c(=O)c2c(c(C)nn2C)n(CCC)c1=O [Example 9, 1,3-dimethyl-4,6-dipropyl-1H-pyra-3-zolo[4,3-d]pyrimidine-5,7-[4H,6H]dione]",A (56-100% inhibition at 1 × 10^-5 M),A (56-100% inhibition at 1 × 10^-5 M)

# Biological target: T2, Type 2 Phosphodiesterase (Cavia porcellus, UniProt A0A286XUV5)
# T2 construct: from tissue
# T2 sequence (A0A286XUV5 22-936): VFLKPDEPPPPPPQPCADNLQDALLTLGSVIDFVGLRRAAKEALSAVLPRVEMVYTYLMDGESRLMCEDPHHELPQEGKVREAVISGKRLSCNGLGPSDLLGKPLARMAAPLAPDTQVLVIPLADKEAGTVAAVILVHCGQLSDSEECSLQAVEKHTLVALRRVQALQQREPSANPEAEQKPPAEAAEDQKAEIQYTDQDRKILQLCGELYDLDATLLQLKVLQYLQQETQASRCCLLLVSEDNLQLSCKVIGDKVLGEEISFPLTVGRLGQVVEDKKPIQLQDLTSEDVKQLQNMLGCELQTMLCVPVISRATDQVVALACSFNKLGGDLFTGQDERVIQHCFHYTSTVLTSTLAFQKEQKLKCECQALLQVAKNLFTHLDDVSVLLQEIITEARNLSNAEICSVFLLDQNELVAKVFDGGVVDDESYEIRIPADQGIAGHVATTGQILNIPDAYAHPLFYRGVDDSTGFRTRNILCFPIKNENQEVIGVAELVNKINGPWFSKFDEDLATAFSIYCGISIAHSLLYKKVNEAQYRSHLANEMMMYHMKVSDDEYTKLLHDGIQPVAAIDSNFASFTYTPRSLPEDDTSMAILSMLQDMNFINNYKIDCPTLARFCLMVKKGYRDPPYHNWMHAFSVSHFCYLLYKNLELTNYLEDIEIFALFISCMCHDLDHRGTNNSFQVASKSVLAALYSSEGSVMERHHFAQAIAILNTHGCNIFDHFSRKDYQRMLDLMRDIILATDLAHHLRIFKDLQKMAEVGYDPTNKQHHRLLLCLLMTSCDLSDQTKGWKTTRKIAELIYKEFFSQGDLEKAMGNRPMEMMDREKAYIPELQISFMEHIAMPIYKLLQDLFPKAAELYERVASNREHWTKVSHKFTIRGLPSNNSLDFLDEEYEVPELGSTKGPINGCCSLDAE
# Assay: PDE inhibition, Type 2 phosphodiesterase, cardiac muscle
# Assay type: biochemical
# Parameters: inhibition: dose or concentration left out as unconfirmed
# Conditions: 1 × 10^-4 M, read-out: % Inhibition of 3H-cGMP Hydrolysis, Type 2 Phosphodiesterase
# Experimental: as §1
row,SMILES,inhibition at 100 µM
1,"CCn1nc(C)c2[nH]c(=O)n(C)c(=O)c21 [Example 6, 1-Ethyl-3,6-dimethyl-1H-pyrazolo-[4,3-d]pyrimidine-5,7-[4H,6H]dione]",56 to 100%
2,"Cc1nn(C)c2c(=O)n(C)c(=O)n(C)c12 [Example 7, 1,3,4,6-tetramethyl-1H-pyrazolo[4,3-d]pyrimidine-5,7-[4H,6H]dione]",36 to 55%
3,"CCn1c(=O)c2c(c(C)nn2C)n(CC)c1=O [Example 8, 4,6-Diethyl-1,3-dimethyl-1H-pyrazolo[4,3-d]pyrimidine-5,7-[4H,6H]dione]",56 to 100%
4,"CCCn1c(=O)c2c(c(C)nn2C)n(CCC)c1=O [Example 9, 1,3-dimethyl-4,6-dipropyl-1H-pyra-3-zolo[4,3-d]pyrimidine-5,7-[4H,6H]dione]",56 to 100%

# Same assay, conditions: read-out: % Inhibition of 3H-cAMP Hydrolysis, Type 2 Phosphodiesterase
row,SMILES,inhibition
1,"CCn1nc(C)c2[nH]c(=O)n(C)c(=O)c21 [Example 6, 1-Ethyl-3,6-dimethyl-1H-pyrazolo-[4,3-d]pyrimidine-5,7-[4H,6H]dione]",36 to 55%
2,"Cc1nn(C)c2c(=O)n(C)c(=O)n(C)c12 [Example 7, 1,3,4,6-tetramethyl-1H-pyrazolo[4,3-d]pyrimidine-5,7-[4H,6H]dione]",36 to 55%
3,"CCn1c(=O)c2c(c(C)nn2C)n(CC)c1=O [Example 8, 4,6-Diethyl-1,3-dimethyl-1H-pyrazolo[4,3-d]pyrimidine-5,7-[4H,6H]dione]",56 to 100%
4,"CCCn1c(=O)c2c(c(C)nn2C)n(CCC)c1=O [Example 9, 1,3-dimethyl-4,6-dipropyl-1H-pyra-3-zolo[4,3-d]pyrimidine-5,7-[4H,6H]dione]",56 to 100%

# Test system: Type 3 Phosphodiesterase
# Assay: PDE inhibition, Type 3 phosphodiesterase, cardiac muscle
# Assay type: biochemical
# Conditions: 1 × 10^-4 M
# Experimental: as §1
row,SMILES,"% Inhibition of 3H-cAMP Hydrolysis, Type 3 Phosphodiesterase"
1,"CCn1nc(C)c2[nH]c(=O)n(C)c(=O)c21 [Example 6, 1-Ethyl-3,6-dimethyl-1H-pyrazolo-[4,3-d]pyrimidine-5,7-[4H,6H]dione]",A (56-100% inhibition at 1 × 10^-5 M)
2,"Cc1nn(C)c2c(=O)n(C)c(=O)n(C)c12 [Example 7, 1,3,4,6-tetramethyl-1H-pyrazolo[4,3-d]pyrimidine-5,7-[4H,6H]dione]",C (21-35% inhibition at 1 × 10^-5 M)
3,"CCn1c(=O)c2c(c(C)nn2C)n(CC)c1=O [Example 8, 4,6-Diethyl-1,3-dimethyl-1H-pyrazolo[4,3-d]pyrimidine-5,7-[4H,6H]dione]",A (56-100% inhibition at 1 × 10^-5 M)
4,"CCCn1c(=O)c2c(c(C)nn2C)n(CCC)c1=O [Example 9, 1,3-dimethyl-4,6-dipropyl-1H-pyra-3-zolo[4,3-d]pyrimidine-5,7-[4H,6H]dione]",A (56-100% inhibition at 1 × 10^-5 M)

# Test system: histamine
# Assay: Bronchodilator test (BCA), histamine spasmogen, guinea pigs
# Assay type: in vivo, Hartley Guinea Pigs
# Parameters: key: Active
# Conditions: 50 mg/kg
# Excerpt: The compounds of this invention may be determined to have antiallergy activity by a standard laboratory means employing the bronchodilator test (BCA) readily accepted as a standard for antiallergy activity, which is described in Siegmund, H. O., et al (J. Pharmacol. and Exptl., 90:254, 1949 and Herxheimer, H., J. Physiol., 117: 252-255, 1952). Thus, antiallergy activity was found for compounds of this invention by this BCA test using Hartley Guinea Pigs by the procedures as described below.
# Naive (BCA) pigs are exposed to spasmogen for ten minutes by means of a De Vilbiss number 40 nebulizer positioned at the back of a closed, six unit plexiglas chamger (19×12.5×9"). Air flow is adjusted to give a pressure of 10 lbs/in; six animals per treatment are averaged, and the mean value for compound treated animals is compared to that for animals treated with vehicle. […]
# The spasmogen may be acetylcholine chloride (0.3%), histamine (0.1%), methacholine chloride (Mecholyl) (0.1%) or serotonin creatinine sulfate. Each nebulizer dispenses 0.2 cc/minute.
row,SMILES,"BCA Results, Ratings"
1,"CCn1nc(C)c2[nH]c(=O)n(C)c(=O)c21 [Example 6, 1-Ethyl-3,6-dimethyl-1H-pyrazolo-[4,3-d]pyrimidine-5,7-[4H,6H]dione]",A
2,"Cc1nn(C)c2c(=O)n(C)c(=O)n(C)c12 [Example 7, 1,3,4,6-tetramethyl-1H-pyrazolo[4,3-d]pyrimidine-5,7-[4H,6H]dione]",A
3,"CCn1c(=O)c2c(c(C)nn2C)n(CC)c1=O [Example 8, 4,6-Diethyl-1,3-dimethyl-1H-pyrazolo[4,3-d]pyrimidine-5,7-[4H,6H]dione]",A
